Source: patent US20110098325A1, “PYRIDINE BENZAMIDES AND PYRAZINE BENZAMIDES USED AS PKD INHIBITORS” (CANCER RESEARCH TECHNOLOGY LIMITED, priority 2006, published 2011)

target: T1, Murine PKD1 kinase domain (Mus musculus, UniProt Q62101); assay: PKD1 (Murine Kinase Domain) Enzyme Activity Assay (IMAP fluorescence polarisation); type: biochemical; details: 10 μM ATP, 60 minutes, room temperature
T1 construct: hexahistidine (pFastBac HTb leader) (N); made in house; host or cells: Sf9 insect cells, baculovirus (Bac-to-Bac HT, pFastBac HTb)
T1 sequence (Q62101 with tags, fused parts or gaps R683W): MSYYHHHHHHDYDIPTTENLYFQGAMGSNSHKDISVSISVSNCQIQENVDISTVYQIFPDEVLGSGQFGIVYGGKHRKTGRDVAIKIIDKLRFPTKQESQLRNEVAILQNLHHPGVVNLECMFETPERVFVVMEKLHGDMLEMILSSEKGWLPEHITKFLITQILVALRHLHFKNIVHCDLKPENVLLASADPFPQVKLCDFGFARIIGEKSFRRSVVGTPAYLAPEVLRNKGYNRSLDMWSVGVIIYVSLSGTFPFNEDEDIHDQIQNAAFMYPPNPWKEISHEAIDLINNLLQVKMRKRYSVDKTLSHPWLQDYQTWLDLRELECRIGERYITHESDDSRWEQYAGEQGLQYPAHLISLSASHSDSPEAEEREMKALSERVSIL

Structure (SMILES)	IC50 [nM]
CN(C)CCNC(=O)c1cccc(-c2cnc(N)c(-c3ccc(F)cc3)c2)c1 [Y-058, 3-[6-Amino-5-(4-fluoro-phenyl)-pyridin-3-yl]-N-(2-dimethylamino-ethyl)-benzamide]	< 1000
COc1cc(-c2cc(-c3cccc(C(=O)NCCCN(C)C)c3)cnc2N)ccc1O [Y-060, 3-[6-Amino-5-(4-hydroxy-3-methoxy-phenyl)-pyridin-3-yl]-N-(3-dimethylamino-propyl)-benzamide]	< 1000
CN(C)CCNC(=O)c1cccc(-c2cnc(N)c(-c3ccc(CO)cc3)c2)c1 [Y-061, 3-[6-Amino-5-(4-hydroxymethyl-phenyl)-pyridin-3-yl]-N-(2-dimethylamino-ethyl)-benzamide]	< 1000
CC(C)Cc1ccc(-c2cc(-c3cccc(C(=O)NCCN(C)C)c3)cnc2N)cc1 [Y-062, 3-[6-Amino-5-(4-isobutyl-phenyl)-pyridin-3-yl]-N-(2-dimethylamino-ethyl)-benzamide]	< 1000
COc1ccc(-c2cc(-c3cccc(C(=O)NCCN(C)C)c3)cnc2N)cc1 [Y-063, 3-[6-Amino-5-(4-methoxy-phenyl)-pyridin-3-yl]-N-(2-dimethylamino-ethyl)-benzamide]	< 1000
CN(C)CCNC(=O)c1cccc(-c2cnc(N)c(-c3ccc(OC(F)(F)F)cc3)c2)c1 [Y-064, 3-[6-Amino-5-(4-trifluoromethoxy-phenyl)-pyridin-3-yl]-N-(2-dimethylamino-ethyl)-benzamide]	< 1000
CN(C)CCNC(=O)c1cccc(-c2cnc(N)c(-c3ccc(OC4CCCCO4)cc3)c2)c1 (stereo not drawn) [Y-065, 3-{6-Amino-5-[4-(tetrahydro-pyran-2-yloxy)-phenyl]-pyridin-3-yl}-N-(2-dimethylamino-ethyl)-benzamide]	< 1000
COC(=O)c1ccc(-c2cc(-c3cccc(C(=O)NCCN(C)C)c3)cnc2N)cc1OC [Y-066, 4-{2-Amino-5-[3-(2-dimethylamino-ethylcarbamoyl)-phenyl]-pyridin-3-yl}-2-methoxy-benzoic acid methyl ester]	< 1000
CN(C)CCNC(=O)c1cccc(-c2cnc(N)c(-c3ccc(Oc4ccccc4)cc3)c2)c1 [Y-067, 3-[6-Amino-5-(4-phenoxy-phenyl)-pyridin-3-yl]-N-(2-dimethylamino-ethyl)-benzamide]	< 1000
CN(C)CCNC(=O)c1cccc(-c2cnc(N)c(-c3ccc(C(C)(C)C)cc3)c2)c1 [Y-068, 3-[6-Amino-5-(4-tert-butyl-phenyl)-pyridin-3-yl]-N-(2-dimethylamino-ethyl)-benzamide]	< 1000
CN(C)CCNC(=O)c1cccc(-c2cnc(N)c(-c3ccc(C(F)(F)F)cc3)c2)c1 [Y-069, 3-[6-Amino-5-(4-trifluoromethyl-phenyl)-pyridin-3-yl]-N-(2-dimethylamino-ethyl)-benzamide]	< 1000
CN(C)CCNC(=O)c1cccc(-c2cnc(N)c(-c3ccc(C(=O)c4ccccc4)cc3)c2)c1 [Y-070, 3-[6-Amino-5-(4-benzoyl-phenyl)-pyridin-3-yl]-N-(2-dimethylamino-ethyl)-benzamide]	< 1000
CN(C)CCNC(=O)c1cccc(-c2cnc(N)c(-c3ccnc(O)c3)c2)c1 [Y-071, 3-(2-Amino-2′-hydroxy-[3,4′]bipyridinyl-5-yl)-N-(2-dimethylamino-ethyl)-benzamide]	< 1000
CN(C)CCNC(=O)c1cccc(-c2cnc(N)c(-c3cccc(S(C)(=O)=O)c3)c2)c1 [Y-072, 3-[6-Amino-5-(3-methanesulfonyl-phenyl)-pyridin-3-yl]-N-(2-dimethylamino-ethyl)-benzamide]	1000 to 10000
CCOc1cccc(-c2cc(-c3cccc(C(=O)NCCN(C)C)c3)cnc2N)c1 [Y-073, 3-[6-Amino-5-(3-ethoxy-phenyl)-pyridin-3-yl]-N-(2-dimethylamino-ethyl)-benzamide]	1000 to 10000
CNc1ncc(-c2cccc(C(=O)NCCN(C)C)c2)cc1-c1cccc(OC)c1 [Y-074, N-(2-Dimethylamino-ethyl)-3-[5-(3-methoxy-phenyl)-6-methylamino-pyridin-3-yl]-benzamide]	< 1000
COc1cccc(-c2cc(-c3cccc(C(=O)N(C)CCN(C)C)c3)cnc2N)c1 [Y-075, 3-[6-Amino-5-(3-methoxy-phenyl)-pyridin-3-yl]-(2-dimethylamino-ethyl)-N-methyl-benzamide]	< 1000
CC(=O)Nc1cccc(-c2cc(-c3cccc(C(=O)NCCN(C)C)c3)cnc2N)c1 [Y-076, 3-[5-(3-Acetylamino-phenyl)-6-amino-pyridin-3-yl]-N-(2-dimethylamino-ethyl)-benzamide]	< 1000
CN(C)CCNC(=O)c1cccc(-c2cnc(N)c(-c3cccc(O)c3)c2)c1 [Y-077, 3-[6-Amino-5-(3-hydroxy-phenyl)-pyridin-3-yl]-N-(2-dimethylamino-ethyl)-benzamide]	< 1000
CN(C)CCNC(=O)c1cccc(-c2cnc(N)c(-c3cncc4ccccc34)c2)c1 [Y-078, 3-(6-Amino-5-isoquinolin-4-yl-pyridin-3-yl)-N-(2-dimethylamino-ethyl)-benzamide]	< 1000
CN(C)CCNC(=O)c1cccc(-c2cnc(N)c(-c3ccc(O)cc3)c2)c1 [Y-079, 3-[6-Amino-5-(4-hydroxy-phenyl)-pyridin-3-yl]-N-(2-dimethylamino-ethyl)-benzamide]	< 1000
CN(C)CCNC(=O)c1cccc(-c2cnc(N)c(-c3cccc(CC#N)c3)c2)c1 [Y-080, 3-[6-Amino-5-(3-cyanomethyl-phenyl)-pyridin-3-yl]-N-(2-dimethylamino-ethyl)-benzamide]	< 1000
COc1cc(OC)cc(-c2cc(-c3cccc(C(=O)NCCN(C)C)c3)cnc2N)c1 [Y-081, 3-[6-Amino-5-(3,5-dimethoxy-phenyl)-pyridin-3-yl]-N-(2-dimethylamino-ethyl)-benzamide]	< 1000
CN(C)CCNC(=O)c1cccc(-c2cnc(N)c(-c3ccc4cc(O)ccc4c3)c2)c1 [Y-082, 3-[6-Amino-5-(6-hydroxy-naphthalen-2-yl)-pyridin-3-yl]-N-(2-dimethylamino-ethyl)-benzamide]	< 1000
COc1cccc(-c2cc(-c3cccc(C(=O)NCCN(C)C)c3)cnc2N)n1 [Y-083, 3-(2′-Amino-6-methoxy-[2,3′]bipyridinyl-5′-yl)-N-(2-dimethylamino-ethyl)-benzamide]	< 1000
CN(C)CCNC(=O)c1cccc(-c2cnc(N)c(-c3ccncc3)c2)c1 [Y-084, 3-(2-Amino-[3,4′]bipyridinyl-5-yl)-N-(2-dimethylamino-ethyl)-benzamide]	< 1000
CN(C)CCNC(=O)c1cccc(-c2cnc(N)c(-c3ccnc(Cl)c3)c2)c1 [Y-085, 3-(2-Amino-2′-chloro-[3,4′]bipyridinyl-5-yl)-N-(2-dimethylamino-ethyl)-benzamide]	< 1000
CSc1nccc(-c2cc(-c3cccc(C(=O)NCCN(C)C)c3)cnc2N)n1 [Y-086, 3-[6-Amino-5-(2-methylsulfanyl-pyrimidin-4-yl)-pyridin-3-yl]-N-(2-dimethylamino-ethyl)-benzamide]	< 1000
COc1ccc2cc(-c3cc(-c4cccc(C(=O)NCCN(C)C)c4)cnc3N)ccc2c1 [Y-087, 3-[6-Amino-5-(6-methoxy-naphthalen-2-yl)-pyridin-3-yl]-N-(2-dimethylamino-ethyl)-benzamide]	< 1000
COc1cc(-c2cc(-c3cccc(C(=O)NCCN(C)C)c3)cnc2N)cc(OC)c1OC [Y-088, 3-[6-Amino-5-(3,4,5-trimethoxy-phenyl)-pyridin-3-yl]-N-(2-dimethylamino-ethyl)-benzamide]	< 1000
